In the assay the test system is CEM cells HIV-1 protection, formazan growth assay. Description: NCI AIDS Antiviral Assay. The note with it: for IC50: measured here: growth of uninfected CEM cells. The method, boiled down: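 Category rules: moderately active means at least 50% protection on retest, and confirmed active means 100% protection reproducibly. The underlying data came from a formazan growth assay in HIV-1-infected CEM cells.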

Several values for one entry are separate records, joined by “and”; a condition that tells them apart may be missing. Equal values may be shown once. Activity calls are given as the source filed them.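 The calls were made as follows: active = compounds giving half or more protection of infected cells from virus-caused growth loss, again on retest; inactive = the rest.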 Where a SMILES comes first, the peptide text is derived from it. Bridges are numbered along the chain shown (N, C = ends). Roman numbers before positions name the chains, in order. [ ]: non-standard residue; d: D form. ΔPro = O=C(O)[CH]1C=CCN1

As for `O=C(NNC(=O)c1nsc2ccccc12)c1ccc(Cl)cc1`, the EC50 (commonly the concentration giving half of the maximal effect) is over 8.13 µM and the IC50 (commonly the midpoint of a concentration-inhibition curve) is over 8.13 µM.

For `CC(C)(C)C1CCC2(CC1)CO2` (stereo not drawn), the EC50 is over 200 µM and the IC50 came to 195 µM. For `Cn1c2ccccc2c2nnc(NCCCO)nc21`, the EC50 was over 200 µM and the IC50 was found to be 148 µM. On the same counts, the results for `CCOC(=O)C(C)(c1c[nH]c2ccccc12)c1c[nH]c2ccccc12` are over 200 µM and 19.5 µM. As to `CSc1nc2c(nc(N)n2C2OC(CO)C(O)C(O)C2O)c(=O)n1C` (stereo not drawn), the outcome was inactive. Turning to `NC(CC(=O)N/C=N\O)C(=O)O` (stereo not drawn), the EC50 was over 200 µM and the IC50 was over 200 µM.

For the compound `O=C(O)C1C=CCN1C(=O)C1C=CCN1C(=O)C1C=CCN1` (stereo not drawn) (H-[ΔPro]-[ΔPro]-[ΔPro]-OH; configuration not given here), the EC50 is over 200 µM and the IC50 stood at 166 µM. The matching figures for `O=c1c2ccccc2n2n1Cc1ccccc1C2`: over 200 µM and 102 µM. Take `NC1=NNC2(C(N)=N1)c1ccccc1-c1ccccc12`: the EC50 is over 200 µM and the IC50 was found to be 51.3 µM. Take `O=CN(SSN(C=O)C1CCCCC1)C1CCCCC1`: the outcome was inactive. Regarding `Cc1ccc(SC2C(C)(C)N(C(C)C)P2(=O)N(C(C)C)C(C)C)cc1` (stereo not drawn), the EC50 is over 9.77 µM and the IC50 is over 9.77 µM.

As to `C/C(=N\O)c1ccccc1`, the result was inactive.

With `CC1Cc2c(N)nc(N3CCOCC3)nc2NC1=O` (stereo not drawn), the outcome was inactive. As to `CN(C)N=Nc1cccc(C(N)=O)c1`, the EC50 was over 646 µM and the half-inhibitory concentration (IC50) amounted to 145 µM. The matching figures for `NC(CSSCC(N)C(=O)NC(Cc1ccccc1)C(=O)O)C(=O)NC(Cc1ccccc1)C(=O)O` (stereo not drawn) (I: H-Cys-Phe-OH / II: H-Cys-Phe-OH; disulfide I:1-II:1; configuration not given here): over 200 µM and over 200 µM. Turning to `O=C1CSc2ccnc(=O)n21`, the EC50 was over 200 µM and the IC50 was over 200 µM. On to `CCOC(=O)c1c(C)nc2c(c1-c1cn(-c3ccccc3)nc1-c1ccccc1)C(=O)c1ccccc1-2`, for which the result was inactive. For `O=C(/C=C/c1ccccc1)c1ccc(Oc2ccccc2)cc1`, the EC50 was over 200 µM and the IC50 was determined as 23.4 µM. `CCNC1C2(CCCCC2)NC(=O)C12CCCCC2` (stereo not drawn): the result was inactive. As for `CCOP(=O)(Nc1cccc(Cl)c1)OCC`, the EC50 was over 955 µM. Regarding `C1=Cc2nc1c(-c1ccccc1)c1ccc([nH]1)c(-c1ccccc1)c1nc(c(-c3ccccc3)c3ccc([nH]3)c2-c2ccccc2)C=C1`, the EC50 was over 2.34 µM and the IC50 was over 2.34 µM. On to `CCOc1ccccc1N=NC1C(=O)N(C(=O)CC(=O)Nc2ccccc2Cl)N=C1C` (stereo not drawn), for which the EC50 was over 200 µM and the IC50 is over 200 µM.

As to `O=C1NC2ON=C(c3ccccc3)C2C2ON=C(c3ccccc3)N12` (stereo not drawn), the EC50 is over 200 µM and the IC50 stood at 37.2 µM. In the case of `O=S1OC[C@H](CCCl)O1` (stereo partly drawn), the EC50 is over 200 µM and the concentration for half-maximal inhibition (IC50) is over 200 µM.

With `c1ccc2c(c1)[nH]c1scc[n+]12`, the outcome was inactive. On to `C/C(=N\NC(=O)/C(C#N)=C\c1ccc(N(CCC#N)CCC#N)cc1)c1ccccc1`, for which the result was inactive. Turning to `CC1(C)O[C@@H](CO)[C@H]([C@@]23OC[C@H]4OC(C)(C)OC4[C@@H]2OC(C)(C)O3)O1` (stereo partly drawn), the EC50 is over 200 µM and the 50% inhibitory concentration (IC50) was over 200 µM. For the compound `Nc1nc(Cl)cc(NCC2(CO)CCCC2)n1`, the EC50 is over 200 µM and the IC50 was 66.1 µM. With `O=C(Nc1nnc(-c2ccccc2)s1)c1cc(=O)c2cc([N+](=O)[O-])ccc2o1`, the EC50 was over 200 µM and the IC50 is over 200 µM. Take `CCOC(=O)c1c(/C=N\Nc2ccccc2)nc2ccccc2c1-c1ccccc1`: the EC50 was over 64.6 µM and the half-inhibitory concentration (IC50) is 26.3 µM.

As to `O=[N+]([O-])c1cccc(SSc2cccc([N+](=O)[O-])c2)c1`, the concentration giving a half-maximal response (EC50) was > 200 µM and 20.4 µM; the IC50 is 4.57 µM and 34.7 µM and 6.31 µM. In the case of `O=c1c2ccccc2oc2cc(Br)ccc12`, the EC50 is over 26.3 µM and the IC50 is over 26.3 µM.

In the case of `O/N=C1/CCCc2nonc21`, the EC50 is over 200 µM and the IC50 is over 200 µM. In the case of `CCC1(O)C(=O)OCc2c1cc1n(c2=O)Cc2cc3cc4c(cc3nc2-1)OCO4` (stereo not drawn), the EC50 is over 0.1 µM and the IC50 turned out to be 0.00562 µM.

Take `COc1ccc2nc3ccccc3c(NCCCN(C)C)c2c1[N+](=O)[O-]`: the EC50 was over 200 µM and the IC50 was determined as 0.589 µM. For the compound `CC(C)CCC[C@@H](C)C1CCC2[C@@H]3CC(OS(=O)(=O)O)C4C[C@@H](OC5OC(CO)C(O)C(O)C5O)CC[C@]4(C)C3CC[C@@]21C` (stereo partly drawn), the EC50 is over 37.2 µM and the IC50 came out at 6.03 µM. For `Nc1nc2sc3ccccc3c(=O)n2n1`, the EC50 is over 91.2 µM and the IC50 was over 91.2 µM.

Turning to `CN(NC(=O)CCCl)C1=NCCCCN1`, the EC50 was over 200 µM and the IC50 was over 200 µM. Take `OCC[P+](c1ccccc1)(c1ccccc1)c1ccccc1`: the EC50 was over 200 µM and the IC50 turned out to be 12.3 µM. For `CNC(=O)Nc1ccncc1`, the EC50 was over 200 µM and the IC50 was over 200 µM. With `CCOC(=O)/C=C/c1cccc(OC)c1`, the EC50 is over 158 µM and the IC50 is over 158 µM.

As for `Clc1ccc(C[P+](c2ccccc2)(c2ccccc2)c2ccccc2)cc1Cl`, the EC50 was over 200 µM and the concentration for half-maximal inhibition (IC50) stood at 3.02 µM. On to `O[C@]12c3ccccc3C1CCCC2N1CCOCC1` (stereo partly drawn), for which the EC50 was over 200 µM and the IC50 is over 200 µM. On to `CCC(CCN)(CCN)[N+](=O)[O-]`, for which the EC50 is over 200 µM and the half-inhibitory concentration (IC50) is over 200 µM. As for `O=C1c2ccccc2C(c2ccccc2)C1c1ccccc1` (stereo not drawn), the EC50 was over 200 µM and the IC50 amounted to 19.5 µM.

Regarding `CCCCC(C)/C=C/C(=O)C1=C(O)/C(=C/C(=O)O)OC1=O` (stereo not drawn), the EC50 was 302 µM and the IC50 was 851 µM. `N#Cc1cc([N+](=O)[O-])ccc1NC(=O)C(=O)C(C(=O)/C=C/c1ccccc1)C1OC(=O)c2ccccc21` (stereo not drawn): the EC50 is over 191 µM and the IC50 is over 191 µM. As for `COc1cc(/C=C(\NC(=O)c2ccccc2)c2nc3ncncc3[nH]2)cc(OC)c1OC`, the result was inactive. On to `NC(Cc1ccc(S(=O)(=O)O)cc1)C(=O)NC(Cc1ccc(S(=O)(=O)O)cc1)C(=O)O` (stereo not drawn), for which the EC50 was over 200 µM and the IC50 is over 200 µM. As to `C=CCn1c(-c2ccccc2)nn(CC(=O)Nn2c(C)nc3ccccc3c2=O)c1=S`, the outcome was inactive. In the case of `CCOC(=O)c1ccc(N(CC/C(CN)=N/NC(N)=O)C(C)=O)cc1`, the EC50 was over 646 µM and the IC50 amounted to 363 µM. As to `O=C(O)[C@H](CSSC[C@@H](C(=O)O)N1C(=O)c2ccccc2C1=O)N1C(=O)c2ccccc2C1=O`, the EC50 was over 200 µM and the IC50 was over 200 µM. Consider `CC(=N\N)/C(C)=N/N=C(C)/C(C)=N/N=C(C)/C(C)=N/N`, for which the EC50 is over 200 µM and the IC50 was 178 µM. For the compound `NC(=O)C(=O)C1C(=O)N(c2ccccc2)N=C1N` (stereo not drawn), the outcome was inactive. Regarding `CC(C)(C)c1cc(Oc2ccc(C#N)c(C#N)c2)cc(C(C)(C)C)c1`, the EC50 was over 40.7 µM and the IC50 is over 40.7 µM. On to `COc1ccc(-c2cc(=O)c3c(OC)c(OC)c(OC)c(OC)c3o2)cc1OC`, for which the EC50 is over 200 µM and the concentration for half-maximal inhibition (IC50) amounted to 33.9 µM. Consider `COC(=O)c1c(C#C[Si](C)(C)C)c(C#C[Si](C)(C)C)c(C#C[Si](C)(C)C)c(C#C[Si](C)(C)C)c1C(=O)OC`, for which the EC50 is over 50.1 µM and the 50% inhibitory concentration (IC50) is over 50.1 µM. On to `CC(=O)OCC1OC(n2c(C)cc(-c3ccc(Cl)cc3)c(C#N)c2=S)C(OC(C)=O)C(OC(C)=O)C1OC(C)=O` (stereo not drawn), for which the EC50 was over 200 µM and the 50% inhibitory concentration (IC50) is 30.2 µM. Consider `CCc1ccc(/C(C#N)=C/c2ccccc2Cl)cc1`, for which the EC50 is over 200 µM and the IC50 came out at 27.5 µM. On to `CCOP(=O)(OCC)C1CC(C)OC1=O` (stereo not drawn), for which the outcome was inactive. Regarding `CC(=O)/C(=C/N1CCNC1=S)C(=O)Nc1ccc(Cl)cc1`, the result was inactive. Turning to `CC1(C)OC(CP(c2ccccc2)c2ccccc2)C(CP(c2ccccc2)c2ccccc2)O1` (stereo not drawn), the EC50 was over 2 µM and the IC50 worked out at 0.229 µM. `Nc1nnc(-c2ccccc2S)o1`: the EC50 is over 63.1 µM and the IC50 was determined as 26.9 µM. The matching figures for `CN(C)c1ccc2cc3ccc(N(C)C)cc3nc2c1`: over 200 µM and 0.309 µM. For the compound `Cc1ccc2c(c1)-c1c3c(nn1C)-c1ccccc1SC3O2` (stereo not drawn), the EC50 is over 23.4 µM and the 50% inhibitory concentration (IC50) was over 23.4 µM. With `CCOC(=O)/C(C#N)=C/c1cccc([N+](=O)[O-])c1`, the EC50 is over 21.4 µM and the IC50 is over 21.4 µM. On to `COc1ccccc1NC(=O)O/N=C(/Cl)C(C)C`, for which the EC50 was over 200 µM and the IC50 stood at 7.41 µM.

As to `CC1=Nc2c(ccc3c2C(=O)c2ccccc2C3=O)NC(c2ccncc2)C1` (stereo not drawn), the EC50 was over 7.41 µM and the IC50 was over 7.41 µM. With `COC(=O)C(Cc1ccccc1)N=Cc1c(O)c(O)c(C(C)C)c2cc(C)c(-c3c(C)cc4c(C(C)C)c(O)c(O)c(C=NC(Cc5ccccc5)C(=O)OC)c4c3O)c(O)c12` (stereo not drawn), the EC50 was over 11.7 µM and the IC50 was over 11.7 µM. Turning to `CCCc1cc(=O)oc2c3c(c4c(c12)OC(C)(C)CC4)O[C@H](C)C(C)C3O` (stereo partly drawn), the EC50 was over 200 µM and the IC50 was determined as 25.1 µM. On the same counts, the results for `NC(=O)N/N=C1\CC2C3CC4C2C4C13` (stereo not drawn) are over 200 µM and over 200 µM. On to `CC(=O)NCC1(c2ccccc2)CCN(CC2COc3ccccc3O2)CC1` (stereo not drawn), for which the EC50 is over 200 µM and the 50% inhibitory concentration (IC50) is over 200 µM. For the compound `Cc1ccc(NC(=O)CC(=O)N2N=C(N(c3ccccc3)c3ccccc3)CC2c2ccccc2)cc1` (stereo not drawn), the result was inactive. For `COc1cc(OC)c(Oc2cccc(OC)c2OC)c(OC)c1`, the EC50 is over 16.2 µM and the IC50 is over 16.2 µM.

Values taken from PubChem BioAssay AID179 (DTP/NCI, 2004).
